The record followed here is ChEMBL document CHEMBL1135928, “Binding mode analysis of 3-(4-benzoyl-1-methyl-1H-2-pyrrolyl)-N-hydroxy-2-propenamide: a new synthetic histone deacetylase inhibitor inducing histone hyperacetylation, growth inhibition, and terminal cell differentiation” (J Med Chem, 2002).

Test [1] has as its target T1, Histone deacetylase 1 (Mus musculus, UniProt O09106). Briefly: In vitro for anti-HDAC1 (Histone deacetylase 1) activity in mouse A20 cells. Type of test: cell-based.
The target of test [2] is T1, Histone deacetylase 1. Put plainly: Binding affinity towards HDAC1 (Histone deacetylase 1) in mouse A20 cells, expressed as binding constant (pKi). It counts as cell-based.

T1 sequence (O09106 whole entry): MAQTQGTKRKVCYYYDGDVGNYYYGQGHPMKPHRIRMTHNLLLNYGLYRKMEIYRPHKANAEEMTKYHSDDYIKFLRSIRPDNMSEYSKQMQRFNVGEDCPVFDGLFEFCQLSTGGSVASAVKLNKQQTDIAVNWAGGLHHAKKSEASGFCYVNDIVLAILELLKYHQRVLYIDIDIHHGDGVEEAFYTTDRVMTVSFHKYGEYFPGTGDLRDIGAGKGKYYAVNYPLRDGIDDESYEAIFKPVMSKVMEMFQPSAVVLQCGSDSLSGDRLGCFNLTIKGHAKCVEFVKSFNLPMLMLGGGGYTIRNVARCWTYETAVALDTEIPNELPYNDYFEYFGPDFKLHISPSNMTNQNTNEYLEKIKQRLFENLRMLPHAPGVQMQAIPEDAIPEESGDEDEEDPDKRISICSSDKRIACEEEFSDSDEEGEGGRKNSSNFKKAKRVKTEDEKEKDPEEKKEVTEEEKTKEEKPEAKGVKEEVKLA

One may read the IC50 as the point on the concentration scale where inhibition reaches its midpoint. A low value points to greater potency in that assay. In general, Ki refers to a measure of affinity in units of concentration, obtained from inhibition or displacement. Higher therefore signals lower affinity. As for `Cn1cc(C(=O)c2ccccc2)cc1/C=C/C(=O)NO`, the IC50 in test [1] was 4.9 µM. This molecule also had an inhibition constant Ki in test [2] of 2.95 µM.
On the same counts, the results for `CN(C)c1ccc(C(=O)c2cc(/C=C/C(=O)NO)n(C)c2)cc1` are 4.2 µM and 2.51 µM.
On the same counts, the results for `Cc1ccc(C(=O)c2cc(/C=C/C(=O)NO)n(C)c2)cc1` are 4.5 µM and 2.69 µM.
